In patent publication US20250129430A1, “HIGH ATP-AFFINITY PROTEIN AS THERAPEUTIC TARGET FOR INTRACTABLE CANCER MOLECULAR SUBTYPES AND INHIBITOR THEREOF” (VeraVerse Co., Ltd., priority 2021, published 2025):

Tests used:
Format in all cases: cell-based, human
[1] = system: SEM-type gastric cancer cell line; assay: Cell viability drug screen, AUC summary over SEM-type lines
Procedure: An FDA-approved small-molecule pharmacological compound (#L1300) and an anticancer compound for research (#L2000) were purchased from Selecckchem and a 10 mM solution was prepared in DMSO. A total of 1,345 compounds were tested the cell viability of the seven EMT gastric cancer cell lines.
Cells cultured for cell-based drug assay were inoculated into a 96-well white optical plate (Corning) at 5×10^3 cells per well. After 24 hours after inoculation, a 2.5 MJT (primary screen) or a half-log 12-serial diluent (secondary screen) of the pharmacological compound contained in DMSO is added to the cells with a robot using a BioMek FXp liquid processor (Beckman) to add to the cells at 50 mM. The final drug concentration in the 5 ns range and the DMSO specification control (0.5%) were calculated. The cells were then further incubated at 37° C. in a 5% CO2 incubator for 72 hours prior to measuring cell viability using the extra-GLO assay kit (Promega). The luminescent properties were measured after 15 min incubation at room temperature using a plate stacker equipped with a plate stacker. The normalized viability for the DMSO-based control was measured to generate a cell line-specific 12-point dose-response curve for each pharmacological compound, and then the area under the curve (AUC) was calculated using a trapezoidal method.

[2] = system: YCC3; assay: Cell viability drug screen, 12-point dose-response AUC; settings: YCC3 cells; 72 hours; 12-point dose-response
In short: (§1)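 Dose-response AUC reflects 72 h drug exposure of gastric cancer cells in a 12-point, half-log format, with viability read by luminescence and normalized to DMSO (0.5%).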

[3] = system: YCC2; assay: as above; settings: YCC2 cells; 72 hours; 12-point dose-response
In short: as §1

[4] = system: SK4; assay: as above; settings: SK4 cells; 72 hours; 12-point dose-response
In short: as §1

[5] = system: KATO3; assay: as above; settings: KATO3 cells; 72 hours; 12-point dose-response
In short: as §1

[6] = system: SNU1; assay: as above; settings: SNU1 cells; 72 hours; 12-point dose-response
In short: as §1

[7] = system: OCUM1; assay: as above; settings: OCUM1 cells; 72 hours; 12-point dose-response
In short: as §1

[8] = system: MKN45; assay: as above; settings: MKN45 cells; 72 hours; 12-point dose-response
In short: (§2)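 AUC comes from 12-point half-log dose–response curves, normalized to DMSO-treated cells and integrated trapezoidally, repeats averaged. Luminescent viability read after 72 h compound exposure at 37 °C; cells plated 5×10^3 per well 24 h before dosing.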

[9] = system: SNU1750; assay: as above; settings: SNU1750 cells; 72 hours; 12-point dose-response
In short: as §1

[10] = system: SNU668; assay: as above; settings: SNU668 cells; 72 hours; 12-point dose-response
In short: as §1

[11] = system: NCC59; assay: as above; settings: NCC59 cells; 72 hours; 12-point dose-response
In short: as §1

[12] = system: Hs746T; assay: as above; settings: Hs746T cells; 72 hours; 12-point dose-response
In short: as §1

[13] = system: SNU16; assay: as above; settings: SNU16 cells; 72 hours; 12-point dose-response
In short: as §1

[14] = system: MKN1; assay: as above; settings: MKN1 cells; 72 hours; 12-point dose-response
In short: as §1

[15] = system: NCC24; assay: as above; settings: NCC24 cells; 72 hours; 12-point dose-response
In short: as §1

[16] = system: SNU484; assay: as above; settings: SNU484 cells; 72 hours; 12-point dose-response
In short: as §1

[17] = system: SNU216; assay: as above; settings: SNU216 cells; 72 hours; 12-point dose-response
In short: as §2

[18] = system: SNU1967; assay: as above; settings: SNU1967 cells; 72 hours; 12-point dose-response
In short: as §1

[19] = system: SNU638; assay: as above; settings: SNU638 cells; 72 hours; 12-point dose-response
In short: as §1

[20] = system: SNU719; assay: as above; settings: SNU719 cells; 72 hours; 12-point dose-response
In short: as §2

[21] = system: SNU601; assay: as above; settings: SNU601 cells; 72 hours; 12-point dose-response
In short: as §1

[22] = system: NCI_N87; assay: as above; settings: NCI_N87 cells; 72 hours; 12-point dose-response
In short: as §1

[23] = system: NCC20; assay: as above; settings: NCC20 cells; 72 hours; 12-point dose-response
In short: as §1

[24] = system: SNU620; assay: as above; settings: SNU620 cells; 72 hours; 12-point dose-response
In short: as §1

[25] = system: AGS; assay: as above; settings: AGS cells; 72 hours; 12-point dose-response
In short: as §2

[26] = system: YCC11; assay: as above; settings: YCC11 cells; 72 hours; 12-point dose-response
In short: as §1

[27] = system: MKN74; assay: as above; settings: MKN74 cells; 72 hours; 12-point dose-response
In short: as §2

[28] = system: MKN28; assay: as above; settings: MKN28 cells; 72 hours; 12-point dose-response
In short: as §1

[29] = system: NCC19; assay: as above; settings: NCC19 cells; 72 hours; 12-point dose-response
In short: as §1

[30] = system: non-SEM-type gastric cancer cell line; assay: Cell viability drug screen, AUC summary over non-SEM-type lines; settings: in the non-SEM-type gastric cancer cell line
[31] = system: FU97; assay: Cell viability drug screen, 12-point dose-response AUC; settings: FU97 cells; 72 hours; 12-point dose-response
In short: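 Trapezoidal AUC of a 12-point, DMSO-normalized dose-response curve. Luminescent viability was measured after 72 h of exposure at 37° C to half-log serial dilutions (0.5% DMSO control), dosed 24 h after plating FU97 cells at 5×10^3 per well.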

| Compound | normalized viability AUC [1] | area under the viability curve (AUC), normalized [2] | area under the viability curve (AUC), normalized [3] | area under the viability curve (AUC), normalized [4] | area under the viability curve (AUC), normalized [5] | area under the viability curve (AUC), normalized [6] | area under the viability curve (AUC), normalized [7] | area under the viability curve (AUC), normalized [8] | area under the viability curve (AUC), normalized [9] | area under the viability curve (AUC), normalized [10] | area under the viability curve (AUC), normalized [11] | area under the viability curve (AUC), normalized [12] | area under the viability curve (AUC), normalized [13] | area under the viability curve (AUC), normalized [14] | area under the viability curve (AUC), normalized [15] | area under the viability curve (AUC), normalized [16] | area under the viability curve (AUC), normalized [17] | area under the viability curve (AUC), normalized [18] | area under the viability curve (AUC), normalized [19] | area under the viability curve (AUC), normalized [20] | other results |
| --- | --- | --- | --- | --- | --- | --- | --- | --- | --- | --- | --- | --- | --- | --- | --- | --- | --- | --- | --- | --- | --- |
| Nc1ccc(-c2ccc3ncc4ccc(=O)n(-c5cccc(C(F)(F)F)c5)c4c3c2)cn1 [Torin, Torin 2] | negative | 1.399 | −0.06527 | −2.722 | 2.66 | 1.392 | −0.1127 | 0.6704 | −0.787 | 0.4391 | 1.584 | −0.7581 | 0.9803 | −1.574 | 0 | −0.505 | −0.4964 | −0.557 | 0.3739 | 3.841 | area under the viability curve (AUC), normalized [21]: 0.4104; area under the viability curve (AUC), normalized [22]: 0.3078; area under the viability curve (AUC), normalized [23]: −1.598; area under the viability curve (AUC), normalized [24]: 0.3965; area under the viability curve (AUC), normalized [25]: −1.701; area under the viability curve (AUC), normalized [26]: −2.299; area under the viability curve (AUC), normalized [27]: −0.1868; area under the viability curve (AUC), normalized [28]: 0.8861; area under the viability curve (AUC), normalized [29]: 1.614; AUC value [30]: high; area under the viability curve (AUC), normalized [31]: −1.526 |
| COc1ncc(-c2ccc3nccc(-c4ccnnc4)c3c2)cc1NS(=O)(=O)c1ccc(F)cc1F [GSK2126458] | negative | 0.9745 | −0.9259 | −2.466 | 3.911 | −0.6492 | 1.227 | 0.05353 | −0.5071 | 1.587 | 2.2975 | −0.063 | 0.6494 | −1.1278 | −1.197 | 0.4641 | −0.4775 | 1.044 | 0.9531 | 5.211 | area under the viability curve (AUC), normalized [21]: 0.1047; area under the viability curve (AUC), normalized [22]: −1.3463; area under the viability curve (AUC), normalized [23]: −1.107; area under the viability curve (AUC), normalized [24]: −0.7945; area under the viability curve (AUC), normalized [25]: −2.286; area under the viability curve (AUC), normalized [26]: −1.373; area under the viability curve (AUC), normalized [27]: 0; area under the viability curve (AUC), normalized [28]: 0.15; area under the viability curve (AUC), normalized [29]: 0.4665; AUC value [30]: high; area under the viability curve (AUC), normalized [31]: −1.393 |
| C[C@@H]1O[C@@H](O[C@H]2C[C@@H](O)[C@]3(CO)[C@H]4[C@H](O)C[C@]5(C)[C@@H](C6=CC(=O)OC6)CC[C@]5(O)[C@@H]4CC[C@]3(O)C2)[C@H](O)[C@H](O)[C@H]1O [Oubain, Ouabain] | negative | 4.209 | −0.6785 | −1.414 | 4.783 | −0.4741 | 0.1113 | −0.3665 | −0.7374 | −1.026 | 1.567 | 0.3093 | 2.229 | −1.223 | −0.2417 | −2.03 | 0.2009 | 0.9873 | 1.054 | 5.038 | area under the viability curve (AUC), normalized [21]: 2.702; area under the viability curve (AUC), normalized [22]: 0.9192; area under the viability curve (AUC), normalized [23]: 0.2365; area under the viability curve (AUC), normalized [24]: 0; area under the viability curve (AUC), normalized [25]: −0.4351; area under the viability curve (AUC), normalized [26]: −0.3494; area under the viability curve (AUC), normalized [27]: −0.9472; area under the viability curve (AUC), normalized [28]: −0.5183; area under the viability curve (AUC), normalized [29]: 0.3874; AUC value [30]: high; area under the viability curve (AUC), normalized [31]: −0.3889 |
